Measured values published in patent US6036957A, “Suppression of T-cell proliferation using peptide fragments of myelin basic protein” (Autoimmune, Inc., priority 1995, dated 2000).

Key:
[1] = tested on: MBP reactive T-cell lines; test: Reactivity of MBP-reactive T-cell lines to overlapping human MBP peptides (proliferation assay); assay type: cell-based; settings: for mean frequency of T-cell lines selectively reactive to the peptide, MS vs controls (FIG. 1): result in words
Description: A rapid T-cell cloning technique was used to examine whether there were immunodominant epitopes on human MBP reactive with Class II MHC phenotypes and the frequency of such reactivity. A total of 15,824 short term T-cell lines were generated from 51 human subjects by culturing peripheral blood mononuclear cells ([…]) with purified MBP (100 μg) followed 3 days later, and then every 3-4 days, by the addition of interleukin-2 (IL-2; from ABI, Columbia, Md.) and 2 units recombinant interleukin-4 (IL-4; Genzyme, Boston, Mass.). On Day 13 of culture, an aliquot from each line was tested for reactivity to MBP using the following proliferation assay: T-cell clones (1×10^5 cells/well) were plated in triplicate and cocultured with appropriate stimuli (i.e. 100 μg whole MBP or 5% IL-2) for 72 hours at 37° C., 90% humidity, 5% CO2, in 96 well flat bottomed microtiter plates (Costar). The cells were pulsed with 2 μCi [^3 H]TdR (2 Ci/mmole, New England Nuclear, Boston, Mass.) for the last 18 hours of culture. APCs were prepared by pulsing human Epstein-Barrvirus transformed human B-cells (the virus being commercially available from ATCC) or L-cells which are mouse cells transfected with human DR2 (L-cells are commercially available from ATCC under accession No. ATCC-CCL1 and can be transfected according to the method of Wilkinson, D. et al, J. Exp. Med., 1988, 167:1442-1458 using DNA encoding DR2 as per Wu, S. et al J. Immunol., 1987, 138:2953). B-cells or L-cells were used at 1×10^6 cells/well in complete media either in the presence or absence of 40 pM MBP or phospholipid protein (PLP) for 2 hours at 37° C., washing twice with 4° C. Hanks (Whittaker), followed by irradiation with 5000 rad. at 4° C. To stimulate T-cells without accessory APCs, 2 μM of MBP, PLP, or the appropriate fragment was added directly to the cells for the duration of the culture: 48 hours, followed by pulsing […] and then harvesting. Ten thousand APC's were used for 100,000 T-cell clones.
T-cell lines shown to be reactive to MBP or PLP were then tested using the same technique for reactivity to overlapping oligopeptide 20-mers encompassing the human MBP sequence as shown in Table 1 above. […]
Of a total of 302 cell lines from patients with MS that could be expanded and confirmed to react with MBP on repeated analysis, 140 (46.4%) reacted with MBP residues 84-102; and approximately 70-80% reacted with either MBP residues 84-102 or 143-168. […] The actual frequency of T-cells derived from the peripheral blood that reacted with each MBP peptide for each individual subject was calculated. […]

actively induced EAE = test: Suppression of actively induced EAE (immunization with MBP/CFA); assay type: in vivo, Lewis rats; settings: FIG. 7, words
[2] = tested on: short term T-cell lines generated from peripheral blood mononuclear cells; test: Frequency of MBP- and PLP-reactive short term T-cell lines (proliferation assay); assay type: cell-based, human; settings: mean +/-SEM
Description: A rapid T-cell cloning technique was used to examine whether there were immunodominant epitopes on human MBP reactive with Class II MHC phenotypes and the frequency of such reactivity. A total of 15,824 short term T-cell lines were generated from 51 human subjects by culturing peripheral blood mononuclear cells ([…]) with purified MBP (100 μg) followed 3 days later, and then every 3-4 days, by the addition of interleukin-2 (IL-2; from ABI, Columbia, Md.) and 2 units recombinant interleukin-4 (IL-4; Genzyme, Boston, Mass.). On Day 13 of culture, an aliquot from each line was tested for reactivity to MBP using the following proliferation assay: T-cell clones (1×10^5 cells/well) were plated in triplicate and cocultured with appropriate stimuli (i.e. 100 μg whole MBP or 5% IL-2) for 72 hours at 37° C., 90% humidity, 5% CO2, in 96 well flat bottomed microtiter plates (Costar). […]
Subjects with other central nervous system diseases had the following diagnoses: 1-3 weeks after either cerebrovascular accident (n=4), brain trauma with CNS hemorrhage (n=4), or metastatic brain tumor (n=2). […] In addition, the frequency of MBP and PLP-reactive lines was calculated separately for each subject by dividing the number of MBP-reactive lines by the total number of lines generated and the mean values +/-SEM are given. […]

Molecule: FKGVDAQGTLSKIFKLGGRD [143-168, human MBP amino acid residues 143-168]
- fraction of MBP reactive T-cell lines that recognized either the 84-102 or the 143-168 peptide ([1]; control groups, 100 lines): about 34%
- fraction of MBP-reactive cell lines that reacted with either MBP residues 84-102 or 143-168 ([1]; patients with MS, 302 cell lines): 70-80%
- mean frequency of T-cell lines selectively reactive to the peptide, MS vs controls (FIG. 1) [1]: both MS and control subjects showed high frequencies

Molecule: HHPARTAHYGSLPQKSEGRT [61-82]
- mean frequency of T-cell lines selectively reactive to the peptide, MS vs controls (FIG. 1) [1]: Significant but less striking increases in reactivity

Molecule: guinea pig MBP peptide 131-150: Control guinea pig MBP peptide 131-150 (DYKSKGFKGAHDAQGTLSKI; UniProt P25188 131-150, looked up, fragment)
- suppression of EAE via IV tolerization (actively induced EAE; administered intravenously prior to immunization): did not suppress
- suppression of EAE via oral tolerization (actively induced EAE; administered orally prior to immunization): did not suppress

B1: PLP: proteolipid protein, myelin autoantigen (protein, UniProt P60201 2-277, looked up)
Myelin proteolipid protein: GLLECCARCLVGAPFASLVATGLCFFGVALFCGCGHEALTGTEKLIETYFSKNYQDYEYLINVIHAFQYVIYGTASFFFLYGALLLAEGFYTTGAVRQIFGDYKTTICGKGLSATVTGGQKGRGSRGQHQAHSLERVCHCLGKWLGHPDKFVGITYALTVVWLLVFACSAVPVYIYFNTWTTCQSIAFPSKTSASIGSLCADARMYGVLPWNAFPGKVCGSNLLSICKTAEFQMTFHLFIAAFVGAAATLVSLLTFMIAATYNFAVLKLMGRGTKF
- MEAN FREQUENCY OF Ag REACTIVE LINES ([2]; MS patients (n = 23)): 3.34 ± 1.56
- MEAN FREQUENCY OF Ag REACTIVE LINES ([2]; other neurological disease (n=10)): 0.90
